Values quoted from earlier work in patent EP4729530A1, “NOVEL PEPTIDE AND USE THEREOF” (Gemvax & Kael Co., Ltd., priority 2023, dated 2024).

Key:
tau = tau (Homo sapiens, UniProt P10636); conditions: read-out: tau aggregation inhibition range (EC50); cited from earlier work
[1] = read-out: cytotoxicity (GI50); cited from earlier work

Chain of tau (P10636 whole entry): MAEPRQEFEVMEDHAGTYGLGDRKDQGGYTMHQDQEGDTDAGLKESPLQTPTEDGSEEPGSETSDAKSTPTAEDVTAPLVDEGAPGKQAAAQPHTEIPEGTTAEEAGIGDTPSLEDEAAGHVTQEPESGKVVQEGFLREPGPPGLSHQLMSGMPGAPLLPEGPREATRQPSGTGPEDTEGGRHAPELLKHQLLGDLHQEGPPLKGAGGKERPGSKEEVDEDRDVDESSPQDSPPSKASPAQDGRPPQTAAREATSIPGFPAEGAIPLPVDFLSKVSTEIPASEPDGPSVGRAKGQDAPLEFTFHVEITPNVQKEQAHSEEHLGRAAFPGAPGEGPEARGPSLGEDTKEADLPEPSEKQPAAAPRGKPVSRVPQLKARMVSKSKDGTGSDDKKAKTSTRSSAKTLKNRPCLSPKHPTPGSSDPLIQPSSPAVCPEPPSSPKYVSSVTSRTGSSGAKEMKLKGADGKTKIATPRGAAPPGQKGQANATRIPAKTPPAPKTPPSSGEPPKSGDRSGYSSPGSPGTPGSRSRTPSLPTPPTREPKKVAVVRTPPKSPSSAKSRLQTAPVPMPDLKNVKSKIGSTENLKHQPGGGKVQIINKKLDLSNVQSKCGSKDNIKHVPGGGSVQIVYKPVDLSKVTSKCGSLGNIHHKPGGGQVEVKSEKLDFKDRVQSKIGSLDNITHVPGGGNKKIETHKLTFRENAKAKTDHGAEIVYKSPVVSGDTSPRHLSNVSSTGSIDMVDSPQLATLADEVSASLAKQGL

SMILES: CN(C)c1ccc2c(c1)Sc1cc(N(C)C)ccc1N2 [LMTM]
- EC50 (tau): 2200 ± 200 nM
- GI50 [1]: 6.4 ± 0.3 µM
